This note sets out measurements from patent publication US12441718B2, “Selective angiotensin II compounds” (VICORE PHARMA AB, priority 2021, dated 2025).

The target of one data set is T1, CYP1A2 (Homo sapiens, UniProt P05177).
T1 construct: isoform-specific substrates incubated with human liver microsomes; tissue Eurofins ITEMG232 (protocol number); host or cells: human liver microsomes
In words: in vitro. The format is in vitro ADME. The following applies: human, microsomes, human liver microsomes, substrate phenacetin, read-out: CYP1A2 Inh %. (In general: Microsomes from liver hold many membrane-bound enzymes, among them those of drug oxidation.)

Data set [1] deals with T2, CYP3A4 (Homo sapiens, UniProt P08684). In words: CYP inhibition in human liver microsomes (Eurofins ITEMG232), midazolam substrate. The class given is in vitro ADME. More on the design: isoform-specific substrates incubated with human liver microsomes; tissue Eurofins ITEMG232 (protocol number); host or cells: human liver microsomes. The following applies: human, probe midazolam, read-out: CYP3A4 midazolam Inh %.

The test system of the next data set is CYP3A4&5. In words: in vitro. The following applies: human, human liver microsomes, probe testosterone.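 Note: Read-out is the metabolite generated from the probe substrate, quantified as HPLC-MS/MS peak area once incubation ends.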
In data set [2] the target is T3, human recombinant AT1 receptor (Homo sapiens, UniProt P30556).
T3 construct: purchased Eurofins ITEM24 (protocol number)
T3 sequence (P30556 1-359): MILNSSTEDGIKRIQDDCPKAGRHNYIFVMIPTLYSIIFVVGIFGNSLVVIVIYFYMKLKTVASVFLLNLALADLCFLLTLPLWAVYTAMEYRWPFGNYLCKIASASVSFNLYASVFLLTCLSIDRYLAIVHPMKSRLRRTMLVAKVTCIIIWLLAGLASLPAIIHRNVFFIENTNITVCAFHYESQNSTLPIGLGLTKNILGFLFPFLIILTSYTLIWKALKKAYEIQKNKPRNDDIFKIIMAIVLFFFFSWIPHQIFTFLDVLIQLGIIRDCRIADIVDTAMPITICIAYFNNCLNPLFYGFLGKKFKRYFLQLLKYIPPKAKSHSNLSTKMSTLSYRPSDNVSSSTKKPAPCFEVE
In words: Binding to AT1 receptor, radiometric scintillation assay (Eurofins ITEM24). Particulars: test compounds at 1 and 10 μM, ligand 125I(sar1,Ile8)-AT-II; * rows = mean of runs.

The target in another data set is T4, CYP2B6 (Homo sapiens, UniProt P20813).
T4 construct: isoform-specific substrates incubated with human liver microsomes; tissue Eurofins ITEMG232 (protocol number); host or cells: human liver microsomes
T4 sequence (P20813 1-491): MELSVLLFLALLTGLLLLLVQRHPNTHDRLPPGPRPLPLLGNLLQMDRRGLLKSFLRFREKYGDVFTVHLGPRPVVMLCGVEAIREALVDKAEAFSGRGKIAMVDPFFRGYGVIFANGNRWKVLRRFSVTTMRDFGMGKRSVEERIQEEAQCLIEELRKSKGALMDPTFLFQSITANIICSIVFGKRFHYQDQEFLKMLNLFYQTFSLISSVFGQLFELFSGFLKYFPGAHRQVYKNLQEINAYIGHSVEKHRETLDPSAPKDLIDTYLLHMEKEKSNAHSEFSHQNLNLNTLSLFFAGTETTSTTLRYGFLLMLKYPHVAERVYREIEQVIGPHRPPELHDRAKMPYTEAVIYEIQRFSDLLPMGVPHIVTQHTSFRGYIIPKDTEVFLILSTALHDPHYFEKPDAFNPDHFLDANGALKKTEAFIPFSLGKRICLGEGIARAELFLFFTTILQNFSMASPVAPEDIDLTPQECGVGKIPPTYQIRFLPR
In words: CYP inhibition in human liver microsomes (Eurofins ITEMG232). The class given is in vitro ADME. The following applies: probe bupropion, substrate bupropion, read-out: CYP2B6 Inh %.

Data set [3] concerns the target T5, human recombinant AT2 receptor (Homo sapiens, UniProt P50052).
T5 construct: purchased Eurofins ITEM26 (protocol number)
T5 sequence (P50052 1-363): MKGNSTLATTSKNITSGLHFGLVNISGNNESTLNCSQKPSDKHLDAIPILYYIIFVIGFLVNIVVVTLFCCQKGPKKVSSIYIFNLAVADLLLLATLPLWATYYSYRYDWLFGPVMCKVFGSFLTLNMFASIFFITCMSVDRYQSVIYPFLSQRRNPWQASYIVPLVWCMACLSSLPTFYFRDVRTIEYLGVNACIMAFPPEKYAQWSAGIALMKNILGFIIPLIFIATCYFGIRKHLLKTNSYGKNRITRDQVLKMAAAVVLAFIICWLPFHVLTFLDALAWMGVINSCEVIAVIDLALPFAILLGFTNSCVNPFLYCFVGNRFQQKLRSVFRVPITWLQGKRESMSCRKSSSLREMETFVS
In words: Binding to AT2 receptor, radiometric scintillation assay (Eurofins ITEM26). The following applies: ligand 125I CGP 42112A, * rows = mean of runs.

Another data set has as its target T6, CYP2D6 (Homo sapiens, UniProt P10635).
T6 construct: isoform-specific substrates incubated with human liver microsomes; tissue Eurofins ITEMG232 (protocol number); host or cells: human liver microsomes
In words: CYP inhibition in human liver microsomes (Eurofins ITEMG232). The format is in vitro ADME. Particulars: probe dextromethorphan, substrate dextromethorphan, read-out: CYP2D6 Inh %.

Another data set has as its target T7, CYP2C8 (Homo sapiens, UniProt P10632).
T7 construct: isoform-specific substrates incubated with human liver microsomes; tissue Eurofins ITEMG232 (protocol number); host or cells: human liver microsomes
T7 sequence (P10632 1-490): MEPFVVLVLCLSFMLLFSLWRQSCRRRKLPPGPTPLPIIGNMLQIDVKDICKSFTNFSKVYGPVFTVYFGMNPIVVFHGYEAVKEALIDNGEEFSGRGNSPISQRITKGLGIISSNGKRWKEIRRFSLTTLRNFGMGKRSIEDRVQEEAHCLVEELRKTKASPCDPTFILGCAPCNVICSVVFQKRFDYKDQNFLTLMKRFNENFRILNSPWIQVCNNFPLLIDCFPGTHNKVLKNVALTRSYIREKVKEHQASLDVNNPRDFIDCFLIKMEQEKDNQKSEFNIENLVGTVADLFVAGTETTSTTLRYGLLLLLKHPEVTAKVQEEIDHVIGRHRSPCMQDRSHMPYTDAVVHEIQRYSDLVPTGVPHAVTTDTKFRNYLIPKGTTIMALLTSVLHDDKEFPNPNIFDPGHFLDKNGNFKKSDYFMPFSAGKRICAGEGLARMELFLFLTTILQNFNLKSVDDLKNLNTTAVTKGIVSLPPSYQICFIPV
The data set is described as above. The class given is in vitro ADME. Particulars: human, probe paclitaxel and amodiaquine, substrate paclitaxel and amodiaquine, read-out: CYP2C8 Inh %.

Data set [4] in a line: Metabolic stability in pooled human liver microsomes. The class given is in vitro ADME. Particulars: human, pooled human liver microsomes, pooled human liver microsomes 0.5 mg/mL, 1 μM test compound, 37° C., * rows = mean of two runs. In a few lines:
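Pooled human liver microsomes (0.5 mg/mL in PBS) preincubated ±1 mM NADPH at 37° C; test compound added at 10 min to 1 μM final. Samples at 0, 5, 15 and 60 min quenched in acetonitrile, parent quantified by LC-MS/MS against a standard curve (terfenadine internal standard). Initial metabolic rate calculated with and without NADPH.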

The target of the next data set is T8, CYP2C19 (Homo sapiens, UniProt P33261).
T8 construct: isoform-specific substrates incubated with human liver microsomes; tissue Eurofins ITEMG232 (protocol number); host or cells: human liver microsomes
In words: CYP inhibition in human liver microsomes (Eurofins ITEMG232). The format is in vitro ADME. The following applies: human, probe omeprazole, substrate omeprazole, read-out: CYP2C19 Inh %.

Data set [5] has as its target T9, CYP2C9 (Homo sapiens, UniProt P11712). The data set is described as above. The class given is in vitro ADME. More on the design: isoform-specific substrates incubated with human liver microsomes; tissue Eurofins ITEMG232 (protocol number); host or cells: human liver microsomes. Particulars: human, probe diclofenac, substrate diclofenac, read-out: CYP2C9 Inh %.
The target of data set [6] is T9, CYP2C9. In words: CYP inhibition of C21 found during development. The class given is in vitro ADME. Particulars: statement in background.
A short description of data set [7]: Metabolic hydrolysis of C21 found during development. Particulars: statement in background. The class given is in vitro ADME.
For data set [8], the target named is T2, CYP3A4. In words: CYP inhibition of C21 found during development. The following applies: statement in background. The class given is in vitro ADME.
The mark [9] stands for this setting: without NADPH, read-out: T1/2, no NaDPH.

The structures appear in SMILES notation. Like-named read-outs stand apart in the source and are kept apart here.

T2 sequence (P08684 whole entry, canonical isoform): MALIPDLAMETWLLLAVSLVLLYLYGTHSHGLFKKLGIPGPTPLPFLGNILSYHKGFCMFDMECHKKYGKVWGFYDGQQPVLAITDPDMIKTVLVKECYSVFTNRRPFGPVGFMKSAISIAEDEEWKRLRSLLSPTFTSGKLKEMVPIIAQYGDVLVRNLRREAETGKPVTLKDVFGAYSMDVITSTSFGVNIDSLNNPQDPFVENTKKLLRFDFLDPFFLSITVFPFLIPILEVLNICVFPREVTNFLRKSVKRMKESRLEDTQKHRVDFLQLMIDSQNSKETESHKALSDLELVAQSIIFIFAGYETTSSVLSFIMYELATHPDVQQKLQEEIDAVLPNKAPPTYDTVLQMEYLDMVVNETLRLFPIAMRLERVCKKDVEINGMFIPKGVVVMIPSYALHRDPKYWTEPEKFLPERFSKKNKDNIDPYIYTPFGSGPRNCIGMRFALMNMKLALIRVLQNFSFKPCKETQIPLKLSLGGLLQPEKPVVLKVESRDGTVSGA
T9 sequence (P11712 whole entry, canonical isoform): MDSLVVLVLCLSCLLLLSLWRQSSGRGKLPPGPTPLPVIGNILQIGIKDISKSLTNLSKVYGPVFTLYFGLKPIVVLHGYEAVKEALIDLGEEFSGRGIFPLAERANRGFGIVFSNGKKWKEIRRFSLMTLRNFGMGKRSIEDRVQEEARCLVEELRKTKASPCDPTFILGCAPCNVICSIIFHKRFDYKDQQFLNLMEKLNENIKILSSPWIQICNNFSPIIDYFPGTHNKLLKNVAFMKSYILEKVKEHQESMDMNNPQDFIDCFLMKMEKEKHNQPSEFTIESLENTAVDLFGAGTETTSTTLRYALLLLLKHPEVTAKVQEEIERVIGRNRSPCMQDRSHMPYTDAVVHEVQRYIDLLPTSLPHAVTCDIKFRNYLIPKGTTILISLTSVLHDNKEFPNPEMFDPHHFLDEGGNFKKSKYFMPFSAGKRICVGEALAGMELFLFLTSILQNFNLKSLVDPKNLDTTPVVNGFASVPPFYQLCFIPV
T1 sequence (P05177 whole entry, canonical isoform): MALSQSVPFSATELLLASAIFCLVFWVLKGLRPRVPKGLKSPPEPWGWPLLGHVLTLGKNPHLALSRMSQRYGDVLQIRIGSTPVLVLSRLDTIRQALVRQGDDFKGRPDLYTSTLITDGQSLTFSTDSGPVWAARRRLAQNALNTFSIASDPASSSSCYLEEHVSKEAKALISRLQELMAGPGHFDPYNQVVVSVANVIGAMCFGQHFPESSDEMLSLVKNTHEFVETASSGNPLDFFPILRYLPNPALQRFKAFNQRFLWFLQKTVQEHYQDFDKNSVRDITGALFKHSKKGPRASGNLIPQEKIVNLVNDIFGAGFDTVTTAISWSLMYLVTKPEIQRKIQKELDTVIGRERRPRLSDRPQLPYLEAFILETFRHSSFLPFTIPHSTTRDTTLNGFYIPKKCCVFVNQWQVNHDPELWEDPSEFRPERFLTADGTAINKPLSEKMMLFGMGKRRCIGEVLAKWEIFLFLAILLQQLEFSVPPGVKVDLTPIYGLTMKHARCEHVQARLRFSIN
T8 sequence (P33261 whole entry, canonical isoform): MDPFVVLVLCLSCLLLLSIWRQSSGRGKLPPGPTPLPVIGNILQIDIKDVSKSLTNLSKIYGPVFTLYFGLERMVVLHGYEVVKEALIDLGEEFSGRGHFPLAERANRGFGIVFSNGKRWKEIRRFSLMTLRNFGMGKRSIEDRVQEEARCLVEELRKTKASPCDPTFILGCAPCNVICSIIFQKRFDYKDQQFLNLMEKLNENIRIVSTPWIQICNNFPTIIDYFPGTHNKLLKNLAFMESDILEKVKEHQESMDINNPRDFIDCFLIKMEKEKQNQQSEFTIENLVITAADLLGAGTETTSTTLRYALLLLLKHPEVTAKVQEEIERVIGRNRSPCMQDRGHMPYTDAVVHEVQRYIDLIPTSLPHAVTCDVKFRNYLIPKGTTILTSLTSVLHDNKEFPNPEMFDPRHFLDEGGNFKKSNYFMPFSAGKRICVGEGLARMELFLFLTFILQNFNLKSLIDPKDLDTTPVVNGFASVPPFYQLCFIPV
T6 sequence (P10635 whole entry, canonical isoform): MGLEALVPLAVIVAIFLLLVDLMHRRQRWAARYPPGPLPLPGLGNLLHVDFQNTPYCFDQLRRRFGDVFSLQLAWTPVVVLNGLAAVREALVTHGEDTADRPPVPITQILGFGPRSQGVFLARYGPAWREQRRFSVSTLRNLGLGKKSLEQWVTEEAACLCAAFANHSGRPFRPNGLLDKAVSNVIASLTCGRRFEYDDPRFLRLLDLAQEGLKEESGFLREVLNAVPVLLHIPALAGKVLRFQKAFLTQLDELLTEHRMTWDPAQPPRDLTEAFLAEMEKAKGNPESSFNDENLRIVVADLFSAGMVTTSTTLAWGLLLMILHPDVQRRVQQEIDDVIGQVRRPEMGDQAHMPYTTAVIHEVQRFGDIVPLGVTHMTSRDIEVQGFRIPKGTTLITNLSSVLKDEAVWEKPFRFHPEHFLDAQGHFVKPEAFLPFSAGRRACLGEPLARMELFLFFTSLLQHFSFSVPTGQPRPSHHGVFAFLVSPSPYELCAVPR
Description for CYP1A2: The following substrates were used; CYP1A phenacetin, CYP2B36 bupropion, CYP2C8 paclitaxel and amodiaquine, CYP2C9 diclofenac, CYP2C19 omeprazole, CYP2D6 dextromethorphan, CYP3A midazolam and testosterone.
At the end of the incubation, the formation of metabolite was monitored by HPLC-MS/MS as the peak area response.

For orientation: IC50 means the concentration that inhibits the measured activity by half. Usually Ki stands for a measure of affinity in units of concentration, obtained from inhibition or displacement. Turning to `CC(C)Cc1ccc(S(=O)(=O)Nc2ncccn2)c(-c2ccc(Cn3ccnc3)c(F)c2)c1` [Example 30, 4′-((1H-Imidazol-1-yl)methyl)-3′-fluoro-5-isobutyl-N-(pyrimidin-2-yl)-[1,1′-biphenyl]-2-sulfonamide], the inhibition at 10 µM at CYP1A2 turned out to be 60.2%; on CYP3A4 [1], 94%; in the data set on CYP3A4&5, 92.2%; at CYP2B6, 38.4%; on CYP2D6, 50.9%; on CYP2C8 it was 62.4%. Besides, the inhibition at 10 µM on CYP2C19 stood at 95.7%; on CYP2C9 [5], 98%. Also, the IC50 in data set [2] came out at 125 nM; in data set [3] (test compounds at 1, 10, 100 and 1000 nM, read-out: AT2 GraFit IC50), 1.01 nM. In addition, the Ki in data set [3] (seven-point dose-response curve) amounted to 0.5 nM. Further, the half-life at 1 μM in [4] (with 1 mM NADPH, read-out: T1/2, + NaDPH) is 1 h; in [4] (setting [9]) it was over 1 h.

Regarding `CCCCOC(=O)NS(=O)(=O)c1sc(CC(C)C)cc1-c1ccc(Cn2ccnc2)cc1` [Example C21, N-butyloxycarbonyl-3-(4-imidazol-1-ylmethylphenyl)-5-isobutylthiophene-2-sulfon-amide], the inhibition at 10 µM in the data set on CYP3A4&5 is 94%. The “inhibition of CYP 2C9” value against CYP2C9 [6] was “potent inhibitor”. Also, in data set [7], the metabolic hydrolysis entry was “rapidly hydrolysed to an inactive sulfonamide metabolite”. Besides, in data set [4] (setting [9]), the half-life at 1 μM came to 0.5 h. Besides, the “inhibition of CYP 3A4” value at CYP3A4 [8] is “potent inhibitor”.
